Laboratory results: patent US20260083704A1, “LXR MODULATORS WITH BICYCLIC CORE MOIETY FOR TREATING DYSLIPIDEMIAS” (OrsoBio, Inc., priority 2022, published 2026)
Like-named read-outs stand apart in the source and are kept apart here.

How the values were obtained:
[1] = biological target: T1, LXRα (Homo sapiens, UniProt Q13133); test: LXR Gal4 reporter transient transfection assay (mammalian two-hybrid, HEK293), LXRα; type: cell-based; design: expressed in transfected cells; host or cells: HEK293; settings: full length (FL) LXRα, HEK293; read-out: FL-M2H Gal4α
T1 sequence (Q13133 1-447): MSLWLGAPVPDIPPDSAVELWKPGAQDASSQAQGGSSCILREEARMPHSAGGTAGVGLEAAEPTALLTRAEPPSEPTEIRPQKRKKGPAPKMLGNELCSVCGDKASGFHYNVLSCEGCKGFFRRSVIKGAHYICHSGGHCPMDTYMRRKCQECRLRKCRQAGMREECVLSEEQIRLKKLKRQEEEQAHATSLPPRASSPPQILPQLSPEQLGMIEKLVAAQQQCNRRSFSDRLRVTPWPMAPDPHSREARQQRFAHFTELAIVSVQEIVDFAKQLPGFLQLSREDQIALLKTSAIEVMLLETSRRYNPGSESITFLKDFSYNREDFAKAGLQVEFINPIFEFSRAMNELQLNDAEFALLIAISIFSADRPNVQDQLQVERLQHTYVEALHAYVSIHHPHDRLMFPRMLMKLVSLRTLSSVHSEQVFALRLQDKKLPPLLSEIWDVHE
Experimental: (§1) LXRα and LXRβ activity status was determined via detection of interaction with coactivator and corepressor proteins in mammalian two-hybrid experiments (M2H). For this, via transient transfection the full length (FL) proteins of LXRα (amino acids 1-447; NP005684; SEQ ID NO:1) or LXRβ-(amino acids 1-461; NP009052; SEQ ID NO:2) or the ligand-binding domains (LBD) of LXRα (amino acids 155-447 SEQ ID NO:3) or LXRβ (amino acids 156-461; SEQ ID NO:4) were expressed from pCMV-AD (Stratagene) as fusions to the transcriptional activation domain of NFkB. As cofactors, domains of either the steroid receptor coactivator 1 (SRC1; amino acids 552-887; SEQ ID NO:5) or of the corepressor NCoR (amino acids 1906-2312; NP006302; SEQ ID NO:6) were expressed as fusions to the DNA binding domain of the yeast transcription factor GAL4 (from pCMV-BD; Stratagene). Interaction was monitored via activation of a coexpressed Firefly Luciferase Reporter gene under control of a promoter containing repetitive GAL4 response elements (vector pFRLuc; Stratagene). Transfection efficiency was controlled via cotransfection of constitutively active pRL-CMV Renilla reniformis luciferase reporter (Promega). HEK293 cells were grown in minimum essential medium (MEM) with 2 mM L-glutamine and Earle's balanced salt solution supplemented with 8.3% fetal bovine serum, 0.1 mM non-essential amino acids, 1 mM sodium pyruvate, at 37° C. in 5% CO2. 3.5×10^4 cells/well were plated in 96-well cell culture plates in growth medium supplemented with 8.3% fetal bovine serum for 16-20 h to ˜90% confluency. For transfection, medium was taken off and LXR and cofactor expressing plasmids as well as the reporter plasmids are added in 30 μL OPTIMEM/well including polyethylene-imine (PEI) as vehicle. Typical amounts of plasmids transfected/well: pCMV-AD-LXR (5 ng), pCMV-BD-cofactor (5 ng), pFR-Luc (100 ng), pRL-CMV (0.5 ng). Compound stocks were prepared in DMSO, prediluted in MEM to a total volume of 120 μL, and added 4 h after addition of the transfection mixture (final vehicle concentration not exceeding 0.2%). Cells were incubated for additional 16 h, lysed for 10 min in 1×Passive Lysis Buffer (Promega) and Firefly and Renilla luciferase activities were measured sequentially in the same cell extract using buffers containing D-luciferine and coelenterazine, respectively. Measurements of luminescence were done in a BMG-luminometer.
(§2) The potencies of Compound 21/3 and its analog, Compound pre-6/3, against LXRα and LXRβ were evaluated in biochemical binding assays, cellular mammalian two-hybrid (M2H) interaction assays evaluating nuclear receptor co-repressor (NCOR) recruitment, and cellular reporter assays evaluating transcriptional activity (Table 5).

[2] = biological target: T2, GST-LXRβ ligand-binding domain (Homo sapiens, UniProt P55055); test: TR-FRETβ activity assay (NCoA3 coactivator peptide recruitment); type: biochemical; settings: 1 μM 24(S)-25-epoxycholesterol prestimulation
T2 construct: amino acids 156-461; NP009052; made in house; host or cells: E. coli
T2 sequence (P55055 156-460 limits assumed): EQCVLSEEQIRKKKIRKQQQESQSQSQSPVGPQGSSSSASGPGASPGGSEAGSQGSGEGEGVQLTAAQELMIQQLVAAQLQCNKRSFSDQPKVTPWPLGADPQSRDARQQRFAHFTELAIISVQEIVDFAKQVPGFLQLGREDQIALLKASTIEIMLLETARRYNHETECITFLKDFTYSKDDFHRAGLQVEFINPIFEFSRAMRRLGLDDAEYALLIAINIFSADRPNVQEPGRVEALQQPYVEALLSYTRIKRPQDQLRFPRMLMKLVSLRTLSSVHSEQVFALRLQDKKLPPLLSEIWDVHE
Outline: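 Inverse-agonist format, with LXR prestimulated by 1 μM 24(S)-25-epoxycholesterol in pH 6.8 Tris/HCl, 240 mM KCl, BSA and Triton. Ten concentrations from 50 μM to 0.002 μM were equilibrated 1 h at 4° C with 76 nM GST-LXRβ LBD and 400 nM biotin-NCoA3 peptide. Peptide recruitment detected by 665/615 nm TR-FRET.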

[3] = Pharmacokinetics in mice after single oral dosing (blood/plasma and liver exposure); type: in vivo; settings: 20 mg/kg single oral dose, time point 4 h
Experimental: The pharmacokinetics of the compounds was assessed in mice after single dosing and oral administrations. Blood/plasma and liver exposure was measured via LC-MS.
The study design was as follows: • Animals: C57/bl6/J (Janvier) males • Diet: standard rodent chow • Dose: 20 mg/kg • Animal handling: animals were withdrawn from food at least 12 h before administration • Design: single dose oral administration, n=3 animals per group • Sacrifice: at stated time point (4, 12 or 24 h) after administration • Bioanalytics: LC-MS of liver and blood/plasma samples

[4] = biological target: T3, LXRβ (Homo sapiens, UniProt P55055); test: LXR Gal4 reporter transient transfection assay (mammalian two-hybrid, HEK293), LXRβ; type: cell-based; design: LXRβ (amino acids 156-461); expressed in transfected cells; host or cells: HEK293; settings: full length (FL) LXRβ, HEK293; read-out: FL-M2H Gal4β
T3 sequence (P55055 1-460): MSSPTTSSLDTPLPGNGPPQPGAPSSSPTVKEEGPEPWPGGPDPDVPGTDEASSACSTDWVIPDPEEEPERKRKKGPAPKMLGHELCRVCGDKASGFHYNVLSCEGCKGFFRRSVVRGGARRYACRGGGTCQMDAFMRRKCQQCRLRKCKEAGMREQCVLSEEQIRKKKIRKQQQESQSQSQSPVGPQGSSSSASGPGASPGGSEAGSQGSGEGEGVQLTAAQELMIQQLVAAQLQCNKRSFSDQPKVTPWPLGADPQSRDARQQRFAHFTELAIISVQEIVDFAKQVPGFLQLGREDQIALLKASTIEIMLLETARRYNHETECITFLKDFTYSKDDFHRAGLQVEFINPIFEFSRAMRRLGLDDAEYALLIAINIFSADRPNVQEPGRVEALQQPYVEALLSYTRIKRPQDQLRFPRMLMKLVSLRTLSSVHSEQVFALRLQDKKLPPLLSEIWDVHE
Outline: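 Mammalian two-hybrid read-out of LXR–coactivator (SRC1) or corepressor (NCoR) interaction: firefly luciferase under GAL4 response elements, normalised via Renilla co-transfection. LXRα/β full-length or LBD fusions expressed transiently in HEK293; compounds (final DMSO ≤0.2%) given 4 h after transfection for 16 h before lysis.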

[5] = biological target: T4, LXRβ (Homo sapiens, UniProt P55055); test: as above; type: cell-based; settings: ligand-binding domain (LBD) of LXRβ, HEK293; read-out: LBD-M2H Gal4β
T4 construct: LXRβ (amino acids 156-461); expressed in transfected cells; host or cells: HEK293
T4 sequence (P55055 156-460): T2 sequence (P55055 156-460 limits assumed)
Experimental: as §1, §2

[6] = biological target: T5, LXRα (Homo sapiens, UniProt Q13133); test: LXR Gal4 reporter transient transfection assay (mammalian two-hybrid, HEK293), LXRα; type: cell-based; settings: ligand-binding domain (LBD) of LXRα, HEK293; read-out: LBD-M2H Gal4α
T5 construct: expressed in transfected cells; host or cells: HEK293
T5 sequence (Q13133 155-447): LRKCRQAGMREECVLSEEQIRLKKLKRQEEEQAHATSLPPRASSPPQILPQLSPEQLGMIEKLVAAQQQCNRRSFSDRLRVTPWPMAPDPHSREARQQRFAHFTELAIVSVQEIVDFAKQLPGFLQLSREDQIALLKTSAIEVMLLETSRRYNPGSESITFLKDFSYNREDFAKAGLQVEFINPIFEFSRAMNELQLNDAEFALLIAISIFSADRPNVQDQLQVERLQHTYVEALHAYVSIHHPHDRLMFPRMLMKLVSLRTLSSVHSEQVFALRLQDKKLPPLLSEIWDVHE
Experimental: as §1, §2

Structure (SMILES) | EC50 [1] [nM] | EC50 [2] [nM] | blood/plasma exposure [3] | liver exposure [3] | liver/blood ratio [3] | EC50 [4] [nM] | EC50 [5] [nM] | EC50 [6] [nM]
Cc1ccc(S(=O)(=O)n2c(-c3cccc(-c4ccc(CN5CCN(C)CC5)cc4)c3)c(-c3ccsc3C#N)c3cc(F)ccc32)cc1 [Compound 8] | 100 to 1000 | 100 to 1000 | B (300 nM to ≤1 μM) | D (>3 μM) | B (3 to ≤10) | < 100 | – | –
Cc1ccc(S(=O)(=O)n2c(-c3cccc(-c4ccc(C(=O)NCCS(=O)(=O)O)cc4Cl)c3)c(-c3ccsc3C#N)c3cc(F)ccc32)cc1 [Compound 10] | < 100 | 100 to 1000 | – | – | – | 100 to 1000 | – | –
Cc1ccc(S(=O)(=O)n2c(-c3cccc(-c4ccc(C(=O)O)cc4Cl)c3)c(-c3ccccc3C#N)c3cc(F)ccc32)cc1 [Compound 11] | < 100 | < 100 | – | – | – | < 100 | – | –
Cc1ccc(S(=O)(=O)n2c(-c3cccc(-c4cc(C)c(C(=O)O)cc4Cl)c3)c(-c3ccsc3C#N)c3cc(F)ccc32)cc1 [Compound 12] | < 100 | 100 to 1000 | – | – | – | < 100 | – | –
N#Cc1sccc1-c1c(-c2cccs2)n(S(=O)(=O)c2ccc(Cl)cc2)c2ccc(O)cc12 [Compound 13] | – | 100 to 1000 | – | – | – | – | < 100 | < 100
N#Cc1sccc1-c1c(-c2cccs2)n(S(=O)(=O)c2ccc(Cl)cc2)c2ccc(OCC(=O)O)cc12 [Compound 15] | – | > 10000 | – | – | – | – | > 10000 | 1000 to 10000
O=S(=O)(c1ccc(Cl)cc1)n1c(-c2cccs2)c(-c2ccsc2Cl)c2ccccc21 [Compound 20] | – | 100 to 1000 | – | – | – | – | < 100 | < 100
Cc1ccc(S(=O)(=O)n2c(-c3cccc(-c4cnc(C(=O)O)cc4C)c3)c(-c3ccsc3C#N)c3cc(F)ccc32)cc1 [Compound 36] | 100 to 1000 | 1000 to 10000 | – | – | – | 100 to 1000 | – | –
Cc1ccc(S(=O)(=O)n2c(-c3cccc(-c4ccc(-c5nnn[nH]5)cc4Cl)c3)c(-c3ccsc3C#N)c3cc(F)ccc32)cc1 [Compound 37] | < 100 | 100 to 1000 | – | – | – | < 100 | – | –
N#Cc1cccc(C#N)c1-c1c(-c2cccc(-c3ccc(C(=O)O)cc3Cl)c2)n(S(=O)(=O)c2ccc(C(F)F)cc2)c2cc(F)c(O)cc12 [Compound 44] | < 100 | 100 to 1000 | – | – | – | < 100 | – | –
